Reference: patent US12343349B2, “Imipramine for use as an inhibitor of Fascin1 overexpression” (FUNDACION UNIVERSITARIA SAN ANTONIO, priority 2018, dated 2025)
Where two headings read alike, the source gives them in different places.

Columns and labels:
[1] = tested on: DLD1 colorectal cancer cell line; experiment: Cell migration (wound healing) assay, DLD1; type: cell-based, human; conditions: for Migration (%): DLD1, slope 4-7 h relative to control, imipramine 20 μM, migrastatin 100 μM
Experimental: (§1) Except for SW-480, imipramine effect was more pronounced than migrastatin, especially for DLD-1. Cell migration was studied with the three cell lines by performing the wound healing assay in the presence of 5% FBS. Cancer colorectal cells (50,000 cells) were plated in low 35-mm-dishes with culture inserts (Ibidi, Martinsried, Germany). After appropriate cell attachment and monolayer formation (around for 24 h), inserts were then removed with sterile forceps to create a wound field of approximately 500 μm, according to the manufacturer protocol. Detached cells were gently removed with phosphate buffered saline (PBS, Dubelco) before the addition of drugs. Confluent cells were incubated in one of the following treatments: 100 μM migrastatin (AnalytiCon Discovery, cat. No. NP-006108), and 20 μM imipramine ((purchased via Molport, Letonia) and, control dishes that were incubated in the presence of 0.1% DMSO. Cells were then allowed to migrate in a cell culture incubator for 24 h. At 0, 3, 5 and 7 h (linear growth phase), 10 fields of the injury area were photographed with an inverted and phase contrast microscopy at ×10 magnification incorporating a CCD camera. For each timepoint, the area uncovered by cells was determined by an image processing free software analysis with Image J software program.
(§2) The migration speed of the wound closure is given as the percentage of the recovered area at each time point, relative to the initially covered area (0 h). The velocity of wound closure (%/h) was calculated according to the formula: Slope (%/h)=((% covered area t_x)−(% covered area t_0))/((tx−t_0)). Slopes are then expressed as percentages relative to control conditions.

[2] = tested on: HCT116 cell line; experiment: Immunofluorescence of fascin1 localization and lamellipodia formation; type: cell-based, human; conditions: for filopodia lamellipodium formation: 24 h, migrastatin 100 μM, imipramine 20 μM, PD98059 50 μM, EGF 10 ng/ml; for Lamellipodia protrusion number: data not shown
Experimental: In order to assess the effect of imipramine on fascin1 localization and lamelipodia formation an immunofluorescence assay was performed. Round coverslips (Thermo Fisher, Waltham, MA USA) were seeded with HCT116 cell line in the presence of 10% FBS. After cells reached 100% confluence, serum supplemented medium was removed and replaced with fresh serum free medium for 24 h. Artificial wounding was performed by transversally dragging a sterilized razor blade on the central area of the coverslips. Coverslips were then placed in 6-well plate with 2 mL serum free DMEM and 100 μM migrastatin, 20 μM imipramine, Epidermal Growth Factor (EGF) 10 ng/ml and MEK inhibitor PD98059 50 μM (MEKi) (both from Sigma-Aldrich, St Louis, MO, USA) for 24 h. Cells were then fixed with Bouin (for fascin1 protein) or 4% formaldehyde (for actin protein) and subsequently permeabilized in a 0.3% Triton X-100/PBS solution, and then exposed to blocking buffer for 30 min. Samples were incubated for 1 h with anti-fascin1 antibody (1/250) (55K-2 clone; Santa Cruz Biotechnology, Heidelberg, Germany) or anti-β actin antibody (1/1000) (Sigma-Aldrich, St Louis, MO, USA) in a wet chamber.
Appropriate fluorescent-labelled primary antibodies were incubated later with Alexa fluor 488-conjugated anti-mouse IgG (from donkey) (1/400) or Alexa fluor 594-labelled phalloidin, respectively (1/1000) (Molecular Probes, Thermo Fisher Scientific, Waltham, MA USA) and Hoechst 33258 (Fluka, Biochemika, Sigma-Aldrich, St Louis, MO, USA) for 30 min at room temperature and darkness. Samples were examined and representative images were taken with a confocal microscope (LSM 510 META from ZEISS, Jena, Germany). The effect of imipramine on the fascin1 localization and the reorganization of the actin cytoskeleton, which includes the protrusion of the lamellipodium at the cell front filopodia formation and fascin1 localization, was assessed by immunofluorescence.

[3] = tested on: HCT116 cells; experiment: Transwell invasion assay on Matrigel; type: cell-based, human; conditions: 30 hours; migrastatin 100 μM, imipramine 20 μM
Experimental: Tumor cell invasion not only involved the acquisition of migration properties but also the ability to degrade the extracellular matrix (ECM). For that reason, we performed a Transwell assay on Matrigel which resembles the ECM composition. The invasive capacities of HCT116 cells were determined using Cytoselect TM 24 Well Cell Invasion Assay (Basement Membrane Colorimetric Format) with coated Transwell chambers (8 μm pore size). Briefly, cells were resuspended with serum-free medium and treated with corresponding inhibitors (migrastatin 100 μM and, imipramine 20 μM). Cells (9.5×10^4) were seeded into the upper chamber, and in the lower chamber 500 μL of DMEM containing 10% FBS were added. After 30 hours of incubation, cells that remained on the upper chamber were scraped away with a cotton swab, and cells that migrated to the bottom of the filter were stained with the cell stain solution. The number of invaded cells was photographed under an inverted phase contrast microscope and quantified D.O.D by a spectrophotometer at λ=560 nm. Also we analyzed the invasive cells using the Image J software. […] A) Invasiveness of cells after treatment with different drugs. Pictures were taken under an inverted phase contrast microscope. The magnification was ×200 and scale bars=50 μm. B) Quantification of the invasive cells D.O. by a spectrophotometer at A=560 nm. […]

[4] = tested on: HCT-116 colorectal cancer cell line; experiment: Cell migration (wound healing) assay, HCT-116; type: cell-based, human; conditions: for Migration (%): slope 4-7 h relative to control, imipramine 20 μM, migrastatin 100 μM
Experimental: as §1, §2

[5] = tested on: SW-480 colorectal cancer cell line; experiment: Cell migration (wound healing) assay, SW-480; type: cell-based, human; conditions: for Migration (%): slope 4-7 h relative to control, imipramine 20 μM, migrastatin 100 μM
Experimental: as §1, §2

[6] = biological target: T1, fascin1 (Homo sapiens, UniProt Q16658); experiment: Differential Scanning Fluorimetry (Thermofluor) thermal shift assay; type: binding; conditions: for ΔTm at 1000 µM: vs free fascin1
T1 construct: purchased Hypermol, Bielefeld, Germany 8411-02
Experimental: Differential Scanning Fluorimetry (Thermofluor) assays were performed using a Biorad C1000 Touch Thermal Cycler CFX96 RT-PCR system in a 96-well format.
Imipramine was prepared at 10 mM in 100% DMSO and added to each well to a final concentration of 1 mM and 10% DMSO. Three replicates with six internal controls, containing only free protein in 10% DMSO, were included in the 96-well plates. The PCR plates were covered and subsequently shaken, centrifuged, incubated for 2 min at 20° C. inside the RT-PCR machine and heated from 20 to 100° C. at a 1° C./min scan-rate. Fascin1 thermal denaturation profiles were obtained recording the fluorescence intensity for the FAM, HEX and T-Red predefined filters. The derivative of the fluorescence curve was used to determine the Tm. Changes in Tm associated to ligand binding were estimated taking the average Tm value derived from the free protein internal controls.
[formula] Ff and Fb are the fluorescence signal (area or CM) of free and bound fascin1 and PT and LT are the total protein and ligand concentration, respectively, at each addition point. Tm values were measured as the minimum of the first derivative of the thermal unfolding profile.

[7] = tested on: colorectal cancer cell lines (DLD-1 and HCT-116) injected in zebra fish; experiment: Zebra fish larvae invasion model (xenograft); type: in vivo; conditions: DLD-1 and HCT-116 cells treated and injected in larvae
Experimental: Finally, in order to find out whether the anti-invasive properties of imipramine could be extrapolable to an animal system, the well-established zebra fish larvae invasion model was used. A xenograft assay was carried out by stained with fluorescent CM-Dil (Vibrant, Invitrogen) two colorectal cancer cell lines (DLD-1 and HCT-116) and injected in zebra fish. The result obtained is referred to the percentage of cell invasion.
Injection and migration of different colorectal cancer cell lines in zebra fish model (A). Two colorectal cancer cell lines (DLD-1 and HCT-166) were treated with migrastatin and imipramine and injected in zebra fish larvae.

[8] = tested on: HCT-116 colorectal cell line; experiment: Myoma organotypic invasion model; type: cell-based, human; conditions: HCT-116, 14 days, compared to control
Experimental: To improve the reliability of the experimental model compared to the real tumor microenvironment, cancer cell invasion was assessed in the myoma organotypic cultures and performed according to the previously published myoma model (Åström, P., Heljasvaara, R., Nyberg, P., Al-Samadi, A., & Salo, 2018). Briefly, uterine leiomyoma tissues were obtained from routine surgery after informed consent of the donors and their use approved by The Ethics Committee of the Oulu University Hospital. The myoma tissue was sliced into 5 mm and disks were made with an 8-mm biopsy punch (Kai Industries Co., Gifu, Japan). Myoma disks were pre-incubated in 100 μM MGS, 10 μM and 20 μM imipramine or 0.1% DMSO-DMEM treatments at +4° C. for 48 h. The myoma disks were placed into Transwell inserts (diameter 6.5 mm; Corning Incorporated, Corning, NY) and 700,000 cells in 50 μl of media were added on top of each myoma disk. The cells were allowed to attach overnight and the myoma disks were transferred onto uncoated nylon disks resting on curved steel grids in 12-well plates with 12 well plates with 1 ml of media plus migrastatin and imipramine in each well. The cancer cells were left to invade the myoma disks for 14 days, while changing the treatment media every 3 days. Subsequently the myoma discs were fixed with 4% neutral buffered formalin at room temperature for 24 h, and processed for histology. […]

[9] = biological target: T1, fascin1; experiment: Fluorescence titration; type: binding; conditions: 25° C., 10% DMSO, 100 mM NaCl, 20 mM Hepes, pH 7.4; read-out: dissociation constant Kd
Experimental: Fascin1 was extensively dialized against the appropriate buffer prior to each titration experiment. Fascin1 concentration was determined by measuring absorbance at 280 nm using an extinction coefficient of 67840 cm-1-M-1. Fluorescence titration experiments were performed in a Cary Eclipse spectrofluorimeter (Varian Inc.). A 15 μM (14.7 μM) fascin1 solution was titrated with each compound by adding increasing volumes of concentrated solutions. Emission spectra were recorded between 307 and 500 nm at 25° C. in 10% DMSO, 100 mM NaCl, 20 mM Hepes, pH 7.4, with the excitation wavelength fixed at 280 nm. Binding isotherms were generated using either the changes in spectral area or in spectral centre of mass (CM), depending whether the change was only in fluorescence intensity or was also in the maximum emission wavelength.
The resulting curves were fitted using ORIGIN 7.0 (Microcal Inc.) and a one-site equilibrium binding model, according to the following equation:
[formula] Ff and Fb are the fluorescence signal (area or CM) of free and bound fascin1 and PT and LT are the total protein and ligand concentration, respectively, at each addition point. Tm values were measured as the minimum of the first derivative of the thermal unfolding profile. […]

CO[C@H]1/C=C/CC/C=C/C(=O)O[C@H]([C@H](C)C(=O)CCCC2CC(=O)NC(=O)C2)/C(C)=C\[C@@H](C)[C@@H]1O [migrastatin]
Migration (%) [1]: 67.91%
filopodia lamellipodium formation [2]: absent
Lamellipodia protrusion number [2]: significantly lower
HCT-116 cell invasive ability (transwell) [3]: inhibit tumor cell migration
Migration (%) [4]: 44.59%
Migration (%) [5]: 70.34%

CN(C)CCCN1c2ccccc2CCc2ccccc21 [imipramine, 3-(10,11-dihydro-5H-dibenzo[b,f]azepin-5-yl)-N,N-dimethylpropan-1-amine]
Tm, FAM ([6]; 1 mM compound, 2 μM fascin1, FAM filter): 58.3 ± 0.6 °C
ΔTm at 1000 µM ([6]; 1 mM compound, 2 μM fascin1, FAM filter, read-out: ΔTm, FAM): 2.7 ± 1.1 °C
Tm, HEX ([6]; 1 mM compound, 2 μM fascin1, HEX filter): 58.0 ± 0.0 °C
ΔTm at 1000 µM ([6]; 1 mM compound, 2 μM fascin1, HEX filter, read-out: ΔTm, HEX): 2 °C
Tm, TRed ([6]; 1 mM compound, 2 μM fascin1, T-Red filter): 58.0 ± 0.0 °C
ΔTm at 1000 µM ([6]; 1 mM compound, 2 μM fascin1, T-Red filter, read-out: ΔTm, TRed): 1.8 ± 0.6 °C
increase in Tm ([6]; text summary over filters): about 2 °C
Migration (%) [1]: 23.21%
inhibition of migration ([1]; DLD-1, 20 μM, p<0.05): remarkable inhibition of migration
filopodia lamellipodium formation [2]: absent
Lamellipodia protrusion number [2]: significantly lower
HCT-116 cell invasive ability (transwell) [3]: inhibit tumor cell migration
inhibition of migration ([4]; 20 μM, p<0.05): remarkable inhibition of migration
Migration (%) [4]: 43.25%
cell invasion in zebra fish larvae [7]: diminishing cell invasion is evident
inhibition of migration ([5]; 20 μM, p<0.05): remarkable inhibition of migration
Migration (%) [5]: 77.52%
area of invasion [8]: inhibits
depth of invasion [8]: inhibits
Kd [9]: 390 µM

EGF: Epidermal Growth Factor (migration stimulator)
filopodia lamellipodium formation [2]: prominent filopodia lamellipodium formation

COc1cccc(-c2cc(=O)c3ccccc3o2)c1N [PD98059]
filopodia lamellipodium formation [2]: absent
